Source: patent publication US20220372020A1, “CRYSTALLINE FORMS OF PHTHALAZINONE COMPOUND” (Idience Co., Ltd., priority 2020, published 2022)

Assays:
[1] = test system: poly(ADP-ribose) polymerase (PARP); conditions: as disclosed in US'973; cited from earlier work
[2] = Long-term stability purity test (total impurities by HPLC); format: physicochemical; conditions: relative humidity 60±5%; for Total impurities content: HPLC
Experimental: Crystalline Form A of the compound of Formula 1 prepared in Example 1 was stored under long-term storage conditions (25±2° C., and Relative humidity: 60±5%). Samples were taken after 3 months, 6 months, 9 months, 12 months, 18 months, and even 24 months from the onset of the storage to measure total impurities content by high performance liquid chromatography (HPLC).

[3] = Storage behaviour of the amorphous form; format: physicochemical
Source text: The obtained amorphous form readily absorbed water during the storage, i.e., it was hygroscopic, whereby the color turned yellow. It was thus confirmed that the amorphous form was not suitable for use as a medicinal drug substance.

For Cl.O=C(c1cc(Cc2n[nH]c(=O)c3ccccc23)ccc1F)N1CC(CNC2CC2)C1 [compound of Formula 1, 4-[3-(3-[(cyclopropylamino)methyl]azetidine-1-carbonyl)-4-fluorobenzyl]phthalazin-1(2H)-one hydrochloride], the PARP inhibitory activity [1] is listed as “PARP inhibitory activity”.
With Cl.O=C(c1cc(Cc2n[nH]c(=O)c3ccccc23)ccc1F)N1CC(CNC2CC2)C1 [Crystalline Form A, 4-[3-(3-[(cyclopropylamino)methyl]azetidine-1-carbonyl)-4-fluorobenzyl]phthalazin-1(2H)-one hydrochloride] the Total impurities content ([2]; 3 months, 25±2° C.) was 0.15% wt %, the Total impurities content ([2]; 6 months, 25±2° C.) was 0.16% wt % and the Total impurities content ([2]; 9 months, 25±2° C.) was 0.15% wt %. For the same compound, the Total impurities content ([2]; 12 months, 25±2° C.) was 0.14% wt %, the Total impurities content ([2]; 18 months, 25±2° C.) was 0.19% wt % and the “Stability under long-term storage conditions (in words)” value ([2]; 25±2° C., up to 24 months) was “high stability”. It also gave a Total impurities content ([2]; Initial, long-term storage 25±2° C.) of 0.14% wt %.
In the case of Cl.O=C(c1cc(Cc2n[nH]c(=O)c3ccccc23)ccc1F)N1CC(CNC2CC2)C1 [amorphous form, 4-[3-(3-[(cyclopropylamino)methyl]azetidine-1-carbonyl)-4-fluorobenzyl]phthalazin-1(2H)-one hydrochloride], the “Colour change during storage” value [3] was “turned yellow” and the “Water absorption during storage (hygroscopicity)” value [3] was “hygroscopic”.
